Bounds are passed on as bounds.

One data set concerns A549 cells. The data set is described as follows: competition cell experiment: inhibition of the uptake of 4R/S-[F-18]F-L-glutamic acid (tracer). Format: cell-based, human. As to conditions: for % Tracer uptake: A549 cells, 10 min of incubation with 0.250 MBq of 4R/S-[F-18]F-L-Glu in PBS buffer, competitor concentration 1 mM, control = 100.0; for inhibition of tracer uptake: competitor 1 mM, tracer 4R/S-[F-18]F-L-glutamic acid. How it is done: The uptake of the glutamic acid derivatives according to the invention into tumour cells was investigated in cell experiments. Here, the uptake of a radiolabelled glutamic acid derivative (4R/S—[F-18]F-L-glutamic acid) was examined in the presence of the compounds according to the invention (competition experiments). The compounds according to the invention were employed in excess (1 mM) over 4R/S—[F-18]F-L-glutamic acid (tracer).
FIG. 1: graphic representation of the inhibition of the cellular uptake of 4R/S—[F-18]F-L-Glu by compounds according to the invention branched in the 4-position in A549 cells (human non-small-cell bronchial carcinoma) after 10 min of incubation.

Another data set deals with A460 tumour cells. The data set is described as follows: cellular uptake of the F-18-labelled compound in tumour cells. Format: cell-based, human. As to conditions: for uptake, % of the dose per 100 000 cells: after 30 min of incubation. From the text: Following labelling with F-18, (4S)-4-(6-[F-18]fluorohexyl)-L-Glu was examined in cell experiments with A460 tumour cells (human non-small-cell bronchial carcinoma).

Data set [1] deals with rats bearing H460 tumours. The data set is described as follows: organ distribution after i.v. administration to animals bearing H460 tumours. As to conditions: 100 min after i.v. administration of 15 MBq. Format: in vivo. How it is done:
(§1) (2S,4S)-2-Amino-4-(6-[F-18]fluorohexyl)pentanedioic acid was studied in rats bearing H460 tumours using PET imaging and subsequent organ distribution.
(§2) The highest enrichment at 0.52% of the injected dose per g in the tumour was measured at a time of 100 min after injection. […] Thus, in these organs, an uptake of 0.36% ID/g and 0.20% ID/g, respectively, was observed after 100 min. Uptake into the bones was 0.43% ID/g.

Data set [2] deals with rats bearing H460 tumours. The data set is described as follows: PET imaging in rats bearing H460 tumours. Format: in vivo. How it is done:
as §1, §2
60 min after i.v. administration of 15 MBq of (2S,4S)-2-amino-4-(6-[F-18]fluorohexyl)pentanedioic acid to rats bearing H460 tumours, data acquisition with a PET scanner (Inveon) was started for 30 minutes.
FIG. 3. PET study of 60 to 90 min after injection of (2S,4S)-2-amino-4-(6-[F-18]fluorohexyl)pentanedioic acid into mice bearing H460 tumours (analysis of sections)
FIG. 4. PET study of 60 to 90 min after injection of (2S,4S)-2-amino-4-(6-[F-18]fluorohexyl)pentanedioic acid into mice bearing H460 tumours (whole body imaging)

Where [3] appears, read: PET 60-90 min after i.v. administration of 15 MBq.

As to `NC(CC(OC1CC(F)C1)C(=O)O)C(=O)O` [(4S)-4-(3-fluorocyclobutoxy)-Glu, 2-Amino-4-(3-fluorocyclobutoxy)pentanedioic acid], in the data set on A549 cells, the “% Tracer uptake” value turned out to be 5.7% and the “inhibition of tracer uptake” value is recorded as over 90%.

On to `N[C@@H](CCC(=O)O)C(=O)O` [L-Glu, L-configured glutamic acid], for which, in the data set with A549 cells, the “% Tracer uptake” value was 12.6% and the “inhibition of tracer uptake” value stood at 87%.

Take `N[C@@H](C[C@H](CCCCCCF)C(=O)O)C(=O)O` [(4S)-4-(6-fluorohexyl)-Glu, (2S,4S)-2-Amino-4-(6-fluorohexyl)pentanedioic acid]: in the data set on A549 cells, the “% Tracer uptake” value is 6.3% and the “inhibition of tracer uptake” value came out at 94%.

With `N[C@@H](C[C@H](O)C(=O)O)C(=O)O` [(4S)-hydroxy-Glu], the “% Tracer uptake” value in the data set on A549 cells is 13.2%.

Regarding `N[C@@H](C[C@H](CCCF)C(=O)O)C(=O)O` [(4S)-4-(3-fluoropropyl)-Glu], the “% Tracer uptake” value in the data set with A549 cells turned out to be 5.4%.

With `C[C@@H](C[C@H](N)C(=O)O)C(=O)O` [(4S)-methyl-Glu], the “% Tracer uptake” value in the data set with A549 cells stood at 7.7%.

`N[C@@H](C[C@H](CCCCCC[18F])C(=O)O)C(=O)O` [(2S,4S)-2-Amino-4-(6-[F-18]fluorohexyl)pentanedioic acid]: the “uptake, % of the dose per 100 000 cells” value in the data set on A460 tumour cells (listed as 4-(6-[F-18]fluorohexyl)-L-Glu) was 11.2 % of the dose per 100 000 cells. Further, the “uptake, % of the dose per 100 000 cells” value in the data set on A460 tumour cells (listed as (4S)-4-(6-[F-18]fluorohexyl)-L-Glu) is 11.2 % of the dose per 100 000 cell. The “time course of cellular uptake” value in the data set on A460 tumour cells (tumour cells, F-18-labelled compound) is given as “time-dependent cellular uptake”. Further, in data set [1] (H460 tumour), the “% ID/g Tumour” value worked out at 0.52 % ID/g. In addition, in data set [1] (H460 tumour bearing animals), the “% ID/g Blood” value is reported as 0.04 % ID/g, the “% ID/g Bones” value amounted to 0.43 % ID/g, the “% ID/g Kidney” value came to 0.36 % ID/g and the “% ID/g Liver” value was 0.08 % ID/g. Further, in data set [1] (H460 tumour bearing animals), the “% ID/g Muscle” value was 0.02 % ID/g and the “% ID/g Pancreas” value was 0.20 % ID/g. Also, in data set [2] (setting [3]), the “PET image analysis: enrichment in the remainder of the body” value was “low enrichment” and the “PET image analysis: uptake into the H460 tumour” value is given as “high uptake”. For the same compound, the “PET study: uptake or excretion in the kidneys or pancreas” value in data set [2] (PET study) is reported as “transient uptake or excretion”.

Turning to `NC(CC(F)C(=O)O)C(=O)O` (racemic) [4-(R/S)-fluoro-D/L-Glu], the “% Tracer uptake” value in the data set on A549 cells worked out at 16.3%.

Source of the values: patent publication US20110104057A1, “Novel [F-18]-labelled L-glutamic acid and L-glutamine derivatives (II), their use and processes for their preparation” (BAYER SCHERING PHARMA AKTIENGESELLSCHAFT, priority 2008, published 2011).
